From patent EP0564397A1, “Antiatherosclerotic substituted phenylquinazoline derivatives” (SANDOZ LTD., priority 1992, dated 1993)

Assays:
Settings in all cases: duration of treatment 8 days
HDL-cholesterol = test: Test A: In vivo HDL-cholesterol test
From the text: (§1) a) Test A: In vivo HDL-cholesterol test: The test is effected according to the method described in the literature, e.g. in EP 528 146 Other conventional methods may be used to assay the blood serum samples for HDL-cholesterol and total triglycerides content.

total triglycerides = test: Test A: In vivo HDL-cholesterol test, blood serum samples assayed for total triglycerides content
From the text: as §1

Apo A-I = test: Test B: Apo A-I test; assay type: in vivo
From the text: b) Test B: Apo A-I test: The test is effected as described in the literature, e.g. in EP 528 146.

Compound	HDL-cholesterol level increase (%) (HDL-cholesterol; average dose 83 mg/kg/day)	Total triglyceride level decrease (%) (total triglycerides; average dose 83 mg/kg/day)	Apo-I level increase (%) (Apo A-I; average dose 83 mg/kg/day)	HDL-cholesterol level increase (%) (HDL-cholesterol; average dose 53 mg/kg/day)	Total triglyceride level decrease (%) (total triglycerides; average dose 53 mg/kg/day)	Apo-I level increase (%) (Apo A-I; average dose 53 mg/kg/day)
CC1=CSC2=Nc3ccccc3[C@@H](c3ccccc3)N12 [Example 1, R-isomer (free base), (R)-3-Methyl-5-phenyl-5H-thiazolo[2,3-b]quinazoline]	402	15	62	–	–	–
Cc1ccc(C)c(OCCCC(C)(C)C(=O)O)c1 [Gemfibrozil]	–	–	–	211	15	88
